Legend:
[1] = molecular target: T1, menin/MLL (terbium chelate-labeled menin, FITC-MBM1 peptide) (Homo sapiens, UniProt O00255, T541A); experiment: Menin/MLL homogenous time-resolved fluorescence (HTRF) assay; type: binding; settings: 30 min incubation
T1 construct: Menin (a.a 1-610-6xhis tag)
T1 sequence (O00255 with tags, fused parts or gaps T541A): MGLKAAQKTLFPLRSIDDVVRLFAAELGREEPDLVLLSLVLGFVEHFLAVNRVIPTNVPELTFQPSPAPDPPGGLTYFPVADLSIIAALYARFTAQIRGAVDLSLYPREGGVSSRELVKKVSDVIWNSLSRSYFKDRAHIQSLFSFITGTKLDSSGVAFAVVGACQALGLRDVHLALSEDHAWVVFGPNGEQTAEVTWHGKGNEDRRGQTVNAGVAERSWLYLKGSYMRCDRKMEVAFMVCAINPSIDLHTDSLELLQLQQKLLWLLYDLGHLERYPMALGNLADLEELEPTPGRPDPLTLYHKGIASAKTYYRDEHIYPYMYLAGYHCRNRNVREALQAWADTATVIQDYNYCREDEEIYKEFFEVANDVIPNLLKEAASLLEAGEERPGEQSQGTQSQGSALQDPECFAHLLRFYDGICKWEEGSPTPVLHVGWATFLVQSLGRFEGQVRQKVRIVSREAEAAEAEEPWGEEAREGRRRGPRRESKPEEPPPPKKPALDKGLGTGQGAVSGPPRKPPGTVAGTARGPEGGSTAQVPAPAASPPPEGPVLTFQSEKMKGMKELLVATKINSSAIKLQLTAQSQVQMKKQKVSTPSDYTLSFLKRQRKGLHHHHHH
Procedure: 1) Menin/MLL Homogenous Time-Resolved Fluorescence (HTRF) Assay
To an untreated, white 384-well microtiter plate was added 40 nL 200× test compound in DMSO and 4 μL 2× terbium chelate-labeled menin (vide infra for preparation) in assay buffer (40 mM Tris.HCl, pH 7.5, 50 mM NaCl, 1 mM DTT (dithiothreitol) and 0.05% Pluronic F-127). After incubation of test compound and terbium chelate-labeled menin for 30 min at ambient temperature, 4 μL 2× FITC-MBM1 peptide (FITC-β-alanine-SARWRFPARPGT-NH2 (SEQ ID NO: 3)) (“FITC” means fluorescein isothiocyanate) in assay buffer was added, the microtiter plate centrifuged at 1000 rpm for 1 min and the assay mixtures incubated for 15 min at ambient temperature. The relative amount of menin FITC-MBM1 complex present in an assay mixture is determined by measuring the homogenous time-resolved fluorescence (HTRF) of the terbium/FITC donor/acceptor fluorophore pair using an EnVision microplate reader (ex. 337 nm/terbium em. 490 nm/FITC em. 520 nm) at ambient temperature. The degree of fluorescence resonance energy transfer (the HTRF value) is expressed as the ratio of the fluorescence emission intensities of the FITC and terbium fluorophores (F^em 520 nm/F^em 490 nm). The final concentrations of reagents in the binding assay are 200 pM terbium chelate-labeled menin, 75 nM FITC-MBM1 peptide and 0.5% DMSO in assay buffer. Dose-response titrations of test compounds are conducted using an 11 point, four-fold serial dilution scheme, starting typically at 10 μM.
Compound potencies were determined by first calculating % inhibition at each compound concentration according to equation 1:
% inhibition=((HC−LC)−(HTRF^compound−LC))/(HC−LC))*100 (Eqn 1)
Where LC and HC are the HTRF values of the assay in the presence or absence of a saturating concentration of a compound that competes with FITC-MBM1 for binding to menin, and HTRF^compound is the measured HTRF value in the presence of the test compound. HC and LC HTRF values represent an average of at least 10 replicates per plate.
% inhibition=Bottom+(Top−Bottom)/(1+10^((logIC50−log[cmpd])*h)) (Eqn 2)
Where Bottom and Top are the lower and upper asymptotes of the dose-response curve, respectively, IC50 is the concentration of compound that yields 50% inhibition of signal and h is the Hill coefficient. IC50 values below 0.1 nM in the HTRF assay were reported as 0.1 nM in the Table below (detection limit).
Preparation of Terbium cryptate labeling of Menin: Menin (a.a 1-610-6xhis tag (“6xhis tag” disclosed as SEQ ID NO: 2), 2.3 mg/mL in 20 mM Hepes (2-[4-(2-Hydroxyethyl)-1-piperazinyl]ethane sulfonic acid), 80 mM NaCl, 5 mM DTT (Dithiothreitol), pH 7.5) was labeled with terbium cryptate as follows. 200 μg of Menin was buffer exchanged into 1× Hepes buffer. 6.67 μM Menin was incubated with 8-fold molar excess NHS (N-hydroxysuccinimide)-terbium cryptate for 40 minutes at room temperature. Half of the labeled protein was purified away from free label by running the reaction over a NAP5 column with elution buffer (0.1 M Hepes, pH 7+0.1% BSA (bovine serum albumin)). The other half was eluted with 0.1 M phosphate buffered saline (PBS), pH7. 400 μl of eluent was collected for each, aliquoted and frozen at −80° C. The final concentration of terbium-labeled Menin protein was 115 μg/mL in Hepes buffer and 85 μg/mL in PBS buffer, respectively.

MOLM14 cells = experiment: Proliferation assay, spheroid-like growth, MOLM14 (MLL-AF9 rearranged); type: cell-based, human; settings: Homo sapiens, MOLM-14, 192 h, 8 days, confluence as measure of spheroid size, read-out: spheroid assay_OneTime MOLM14 IC50
Procedure: The anti-proliferative effect of menin/MLL protein/protein interaction inhibitor test compounds was assessed in human leukemia cell lines. The cell line MOLM14 harbors a MLL translocation and expresses the MLL fusion proteins MLL-AF9, respectively, as well as the wildtype protein from the second allele. […] KO-52 was used as a control cell line containing two MLL (KMT2A) wildtype alleles in order to exclude compounds that display general cytotoxic effects.
MOLM14 cells were cultured in RPMI-1640 (Sigma Aldrich) supplemented with 10% heat-inactivated fetal bovine serum (HyClone), 2 mM L-glutamine (Sigma Aldrich) and 50 μg/ml gentamycin (Gibco). KO-52 cell lines were propagated in alpha-MEM (Sigma Aldrich) supplemented with 20% heat-inactivated fetal bovine serum (HyClone), 2 mM L-glutamine (Sigma Aldrich) and 50 μg/ml gentamycin (Gibco).
In order to assess the anti-proliferative effects, 200 MOLM14 cells, or 300 KO-52 cells were seeded in 200 μl media per well in 96-well round bottom, ultra-low attachment plates (Costar, catalogue number 7007). Cell seeding numbers were chosen based on growth curves to ensure linear growth throughout the experiment. Test compounds were added at different concentrations and the DMSO content was normalized to 0.3%. Cells were incubated for 8 days at 37° C. and 5% CO2. Spheroid like growth was measured in real-time by live-cell imaging (IncuCyteZOOM, Essenbio, 4× objective) acquiring images at day 8. Confluence (%) as a measure of spheroid size was determined using an integrated analysis tool.
In order to determine the effect of the test compounds over time, the confluence in each well as a measure of spheroid size, was calculated. Confluence of the highest dose of a reference compound was used as baseline for the LC (Low control) and the confluence of DMSO treated cells was used as 0% cytotoxicity (High Control, HC).
Absolute IC50 values were calculated as percent change in confluence as follows:
LC=Low Control: cells treated with e.g. 1 μM of the cytotoxic agent staurosporin, or e.g. cells treated with a high concentration of an alternative reference compound
GraphPad Prism (version 7.00) was used to calculate the IC50. Dose-response equation was used for the plot of % Effect vs Log 10 compound concentration with a variable slope and fixing the maximum to 100% and the minimum to 0%.

SMILES | IC50 [1] | IC50 (MOLM14 cells)
CC(C)C([C@H]1C[C@@H](N2CC[C@@](C)(O)C2)C1)N1CC2(CCN(c3ncnnc3Oc3ccc(F)cc3-c3cnccc3C3CC3)C2)C1 (mixture of isomers) [Compound 137] | 0.2 nM | 7 nM
CC(C)[C@H]([C@H]1C[C@@H](N2CCC(C(=O)N(C)C)C2)C1)N1CC2(CCN(c3ncnnc3Oc3ccc(F)cc3-c3cncnc3C3CC3)C2)C1 (mixture of isomers) [Compound 210] | 0.1 nM | 5 nM
COC1(C)CCN([C@H]2C[C@@H]([C@H](C(C)C)N3CC4(CCN(c5ncnnc5Oc5ccc(F)cc5-c5nnccc5C5CC5)C4)C3)C2)C1 (mixture of isomers) [Compound 275] | 0.1 nM | 7 nM
Cc1ncc(-c2cc(F)ccc2Oc2nncnc2N2CCC3(C2)CN([C@@H](C(C)C)[C@H]2C[C@@H](N4CC5COCC5C4)C2)C3)c(C2CC2)n1 (mixture of isomers) [Compound 379] | 0.11 nM | 1.9 nM
CC(C)[C@H]([C@H]1C[C@@H](NC2(C)CCS(=O)(=O)CC2)C1)N1CC2(CCN(c3ncnnc3Oc3ccc(F)cc3-c3cncnc3C3CC3)C2)C1 (single isomer, unassigned) [Compound 44] | 0.1 nM | 27 nM
CC(=O)N1CCN([C@H]2C[C@H]([C@H](C(C)C)N3CC4(CCN(c5ncnnc5Oc5ccc(F)cc5-c5cnncc5C5CC5)C4)C3)C2)CC1 (single isomer, unassigned) [Compound 105] | 1 nM | 
CC(C)[C@H]([C@H]1C[C@@H](N2CC3(CCC(=O)N3C)C2)C1)N1CC2(CCN(c3ncnnc3Oc3ccc(F)cc3-c3cncnc3C3CC3)C2)C1 (single isomer, unassigned) [Compound 316] | 4.9 nM | 
CC(C)[C@@H](C1CN(CC2COC2)C1)N1CC2(CCN(c3ncnnc3Oc3ccc(F)cc3-c3cncnc3C3CC3)C2)C1 (single isomer, unassigned) [Compound 353] | 0.5 nM | 
C[C@@H]([C@H]1C[C@@H](NC(=O)C2CC2)C1)N1CC2(CCN(c3ncnnc3Oc3ccc(F)cc3-c3cncnc3C3CC3)C2)C1 (single isomer, unassigned) [Compound 444] | 0.16 nM | 
C[C@@H]([C@H]1C[C@@H](NC(=O)C2(F)CC2)C1)N1CC2(CCN(c3ncnnc3Oc3ccc(F)cc3-c3cncnc3C3CC3)C2)C1 (single isomer, unassigned) [Compound 456] | 0.53 nM | 
CC(=O)N[C@H]1C[C@@H](C(C(C)C)N2CC3(CCN(c4ncnnc4Oc4ccc(F)cc4-c4ccnnc4C4CC4)C3)C2)C1 (stereo partly shown) [Compound 182] | 0.6 nM | 
CC(C)C(C1CCN(CC2COC2)CC1)N1CC2(CCN(c3ncnnc3Oc3ccc(F)cc3-c3nccnc3C3CC3)C2)C1 (stereo not shown) [Compound 202] | 0.7 nM | 
Cc1noc(C2CC2)c1-c1cc(F)ccc1Oc1nncnc1N1CCC2(C1)CN([C@H](C(C)C)C1CC(NC(=O)OC(C)(C)C)C1)C2 (stereo partly drawn) [Compound 505, tert-butyl N-[3-[(1R)-1-[7-[6-[2-(5-cyclopropyl-3-methyl-isoxazol-4-yl)-4-fluoro-phenoxy]-1,2,4-triazin-5-yl]-2,7-diazaspiro[3.4]octan-2-yl]-2-methyl-propyl]cyclobutyl]carbamate] | 0.54 nM | 

More lines, now with the values ahead:

IC50 [1] | IC50 (MOLM14 cells) | SMILES
0.12 nM | 32 nM | Cc1nnc(C2CC2)n1-c1cc(F)ccc1Oc1nncnc1N1CCC2(C1)CN([C@H](C(C)C)C1CC(N(C)C)C1)C2 (mixture of isomers) [Compound 502, N,N-dimethyl-3-[(1R)-1-[7-[6-[2-(3-cyclopropyl-5-methyl-1,2,4-triazol-4-yl)-4-fluoro-phenoxy]-1,2,4-triazin-5-yl]-2,7-diazaspiro[3.4]octan-2-yl]-2-methyl-propyl]cyclobutanamine]
0.29 nM |  | CNC(=O)c1nccc(N[C@H]2C[C@@H]([C@@H](C(C)C)N3CC4(CCN(c5ncnnc5Oc5ccc(F)cc5-c5cncnc5C5CC5)C4)C3)C2)n1 (single isomer, unassigned) [Compound 457]
0.06 nM |  | CNC(=O)c1nc(N[C@H]2C[C@@H](C(C(C)C)N3CC4(CCN(c5ncnnc5Oc5ccc(F)cc5-c5cncnc5C5CC5)C4)C3)C2)oc1C (single isomer, unassigned) [Compound 459]
0.22 nM |  | COC(=O)c1nccc(N[C@H]2C[C@@H](C(C(C)C)N3CC4(CCN(c5ncnnc5Oc5ccc(F)cc5-c5cncnc5C5CC5)C4)C3)C2)n1 (single isomer, unassigned) [Compound 489]
0.18 nM |  | Cc1noc(C2CC2)c1-c1cc(F)ccc1Oc1nncnc1N1CCC2(C1)CN([C@H](C(C)C)[C@H]1C[C@@H](N(C)C)C1)C2 (single isomer, unassigned) [Compound 503]
0.58 nM |  | Cc1noc(C2CC2)c1-c1cc(F)ccc1Oc1nncnc1N1CCC2(C1)CN([C@H](C(C)C)[C@H]1C[C@@H](NC(=O)OC(C)(C)C)C1)C2 [Compound 504, tert-butyl N-[3-[(1R)-1-[7-[6-[2-(5-cyclopropyl-3-methyl-isoxazol-4-yl)-4-fluoro-phenoxy]-1,2,4-triazin-5-yl]-2,7-diazaspiro[3.4]octan-2-yl]-2-methyl-propyl]cyclobutyl]carbamate]

From US20240417405A1, “Substituted Spiro Derivatives” (Janssen Pharmaceutica NV, priority 2021, published 2024)
